Our source for the T/C values is PubChem BioAssay AID180 (DTP/NCI, 2004).

The structures appear in SMILES notation. Where “and” joins values, the source holds several entries; their conditions need not be identical. Equal values may be shown once.

The test concerns BDF1 mice, Adenocarcinoma 755 s.c., tumor weight T/C. The test is described as follows: NCI In Vivo Anticancer Drug Screen. Data for tumor model Adenocarcinoma 755 (subcutaneous) in B6D2F1 (BDF1) mice. The following applies: endpoint: mean tumor weight, higher = larger tumour. Summed up:
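Readout: T/C, i.e. treated-group measurement over vehicle-control measurement. Endpoint is survival or tumor size in tumor-bearing mice given compound.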

Setting [1] is: dose: 15.0 mg/kg/injection, schedule: Q01DX011 (ip), vehicle: carboxymethylcellulose (CMC).
[2] abbreviates: dose: 15.0 mg/kg/injection, schedule: Q01DX011 (ip), vehicle: methylcellulose (MC).
[3] abbreviates: dose: 30.0 mg/kg/injection, schedule: Q01DX011 (ip), vehicle: carboxymethylcellulose (CMC).
The mark [4] stands for this setting: dose: 100.0 mg/kg/injection, schedule: Q01DX011 (ip), vehicle: other.
[5] abbreviates: dose: 200.0 mg/kg/injection, schedule: Q01DX011 (ip), vehicle: other.
[6] abbreviates: dose: 125.0 mg/kg/injection, schedule: Q01DX011 (ip), vehicle: methylcellulose (MC).
Setting [7] is: dose: 25.0 mg/kg/injection, schedule: Q01DX011 (ip), vehicle: methylcellulose (MC).
The mark [8] stands for this setting: dose: 60.0 mg/kg/injection, schedule: Q01DX011 (ip), vehicle: carboxymethylcellulose (CMC).

In the case of `COc1ccc2c(c1)/C(=C/CCN(C)C)c1ccccc1S2`, the T/C by setting is: (dose: 1.0 mg/kg/injection, schedule: Q01DX011 (ip), vehicle: methylcellulose (MC)) 87 % of control; (dose: 2.0 mg/kg/injection, schedule: Q01DX011 (ip), vehicle: methylcellulose (MC)) 87 % of control; (dose: 3.0 mg/kg/injection, schedule: Q01DX011 (ip), vehicle: methylcellulose (MC)) 27 % of control; (dose: 4.0 mg/kg/injection, schedule: Q01DX011 (ip), vehicle: carboxymethylcellulose (CMC)) 93 % of control; (dose: 7.0 mg/kg/injection, schedule: Q01DX011 (ip), vehicle: carboxymethylcellulose (CMC)) 29 % of control; (dose: 7.0 mg/kg/injection, schedule: Q01DX011 (ip), vehicle: methylcellulose (MC)) 42 % of control. Besides, the T/C was 67 % of control under setting [1], 39 % of control under setting [2] and 47 % of control under setting [3].
Consider `CC(=O)NCC(=O)O`, for which the T/C is 106 % of control under setting [4]; 74 % of control under setting [5]; 87 % of control (dose: 800.0 mg/kg/injection, schedule: Q01DX011 (ip), vehicle: other).
For the compound `OC1c2cc(Cl)ccc2-c2c(Cl)cc(Cl)cc21` (configuration not stated), the T/C runs as follows: (dose: 50.0 mg/kg/injection, schedule: Q01DX011 (ip), vehicle: other) 37 % of control; under setting [4], 41 % of control; under setting [5], 19 % of control; (dose: 400.0 mg/kg/injection, schedule: Q01DX011 (ip), vehicle: other) 10 % of control.
With `CCc1c(CC(=O)O)c2cc(C)ccc2n1Cc1ccc(Cl)cc1`, the T/C is, setting by setting: (dose: 20.0 mg/kg/injection, schedule: Q01DX011 (ip), vehicle: carboxymethylcellulose (CMC)) 87 % of control; (dose: 40.0 mg/kg/injection, schedule: Q01DX011 (ip), vehicle: carboxymethylcellulose (CMC)) 119 % of control; (dose: 80.0 mg/kg/injection, schedule: Q01DX011 (ip), vehicle: carboxymethylcellulose (CMC)) 97 % of control; (dose: 100.0 mg/kg/injection, schedule: Q01DX011 (ip), vehicle: carboxymethylcellulose (CMC)) 37 % of control.
In the case of `Nc1nc(Cl)cc(Nc2ccccc2Br)n1`, the T/C is, setting by setting: under setting [2], 66 % of control; (dose: 31.0 mg/kg/injection, schedule: Q01DX011 (ip), vehicle: methylcellulose (MC)) 87 % of control; (dose: 62.0 mg/kg/injection, schedule: Q01DX011 (ip), vehicle: methylcellulose (MC)) 88 % of control; under setting [6], 79 % of control; (dose: 250.0 mg/kg/injection, schedule: Q01DX011 (ip), vehicle: methylcellulose (MC)) 121 % of control.
On to `CC(=O)OCC(=O)[C@@]1(O)CC[C@H]2[C@@H]3C[C@H](C)C4=CC(=O)C=C[C@]4(C)[C@@]3(F)[C@@H](O)C[C@@]21C`, for which the T/C reads like this: (dose: 0.06 mg/kg/injection, schedule: Q01DX011 (sc), vehicle: steriod suspending solution) 101 % of control; (dose: 0.13 mg/kg/injection, schedule: Q01DX011 (sc), vehicle: steriod suspending solution) 87 % of control; (dose: 4.0 mg/kg/injection, schedule: Q01DX011 (sc), vehicle: steriod suspending solution) 49 % of control; (dose: 5.0 mg/kg/injection, schedule: Q01DX011 (sc), vehicle: steriod suspending solution) 48 % of control; (dose: 9.0 mg/kg/injection, schedule: Q01DX011 (sc), vehicle: steriod suspending solution) 37 % of control; (dose: 10.0 mg/kg/injection, schedule: Q01DX011 (sc), vehicle: steriod suspending solution) 34 % of control. The T/C is 37 % of control and 51 % of control (dose: 18.0 mg/kg/injection, schedule: Q01DX011 (sc), vehicle: steriod suspending solution); 21 % of control (dose: 20.0 mg/kg/injection, schedule: Q01DX011 (sc), vehicle: steriod suspending solution); 13 % of control and 22 % of control (dose: 37.0 mg/kg/injection, schedule: Q01DX011 (sc), vehicle: steriod suspending solution); 15 % of control (dose: 75.0 mg/kg/injection, schedule: Q01DX011 (sc), vehicle: steriod suspending solution).
As for `Cc1cc(NC(=O)c2ccc(C(=O)Nc3ccc(N=Nc4cc(S(=O)(=O)O)c5cccc(S(=O)(=O)O)c5c4)c(C)c3)cc2)ccc1N=Nc1cc(S(=O)(=O)O)c2cccc(S(=O)(=O)O)c2c1`, the T/C under setting [3] was 114 % of control.
For the compound `CC(Cl)CN(Cc1cc(O)c(CN(CC(C)Cl)CC(C)Cl)cc1O)CC(C)Cl` (configuration not stated), under setting [6], the T/C was 58 % of control.
Consider `O=c1[nH]cc(N(CCCl)CCCl)c(=O)[nH]1`, for which the T/C (dose: 0.17 mg/kg/injection, schedule: Q01DX011 (ip), vehicle: carboxymethylcellulose (CMC)) was 82 % of control; the T/C (dose: 0.21 mg/kg/injection, schedule: Q01DX011 (ip), vehicle: carboxymethylcellulose (CMC)) was 93 % of control and 94 % of control; the T/C (dose: 0.34 mg/kg/injection, schedule: Q01DX011 (ip), vehicle: carboxymethylcellulose (CMC)) is 86 % of control; the T/C (dose: 0.42 mg/kg/injection, schedule: Q01DX011 (ip), vehicle: carboxymethylcellulose (CMC)) is 53 % of control and 54 % of control; the T/C (dose: 0.67 mg/kg/injection, schedule: Q01DX011 (ip), vehicle: carboxymethylcellulose (CMC)) is 45 % of control; the T/C (dose: 0.68 mg/kg/injection, schedule: Q01DX011 (ip), vehicle: carboxymethylcellulose (CMC)) is 77 % of control and 80 % of control. The T/C by setting is: (dose: 0.83 mg/kg/injection, schedule: Q01DX011 (ip), vehicle: carboxymethylcellulose (CMC)) 58 % of control; (dose: 1.11 mg/kg/injection, schedule: Q01DX011 (ip), vehicle: carboxymethylcellulose (CMC)) 59 % of control; (dose: 1.13 mg/kg/injection, schedule: Q01DX011 (ip), vehicle: carboxymethylcellulose (CMC)) 40 % of control; (dose: 1.35 mg/kg/injection, schedule: Q01DX011 (ip), vehicle: carboxymethylcellulose (CMC)) 22 % of control; (dose: 1.67 mg/kg/injection, schedule: Q01DX011 (ip), vehicle: carboxymethylcellulose (CMC)) 18 % of control; (dose: 1.69 mg/kg/injection, schedule: Q01DX011 (ip), vehicle: carboxymethylcellulose (CMC)) 27 % of control and 28 % of control.
For the compound `c1cc(CSc2ncnc3nc[nH]c23)ccn1`, the T/C is, setting by setting: (dose: 3.1 mg/kg/injection, schedule: Q01DX011 (ip), vehicle: methylcellulose (MC)) 72 % of control; (dose: 6.25 mg/kg/injection, schedule: Q01DX011 (ip), vehicle: methylcellulose (MC)) 39 % of control; (dose: 12.5 mg/kg/injection, schedule: Q01DX011 (ip), vehicle: methylcellulose (MC)) 29 % of control; under setting [7], 16 % of control and 25 % of control; (dose: 50.0 mg/kg/injection, schedule: Q01DX011 (ip), vehicle: methylcellulose (MC)) 12 % of control; (dose: 100.0 mg/kg/injection, schedule: Q01DX011 (ip), vehicle: methylcellulose (MC)) 7 % of control. Moreover, the T/C (dose: 200.0 mg/kg/injection, schedule: Q01DX011 (ip), vehicle: methylcellulose (MC)) was 2 % of control.
For the compound `C=CC(O)CN1CC1C` (configuration not stated) (tested in a mixture with another compound), the T/C (dose: 1.9 mg/kg/injection, schedule: Q01DX011 (ip), vehicle: methylcellulose (MC)) was 85 % of control; the T/C (dose: 3.75 mg/kg/injection, schedule: Q01DX011 (ip), vehicle: methylcellulose (MC)) is 100 % of control; the T/C (dose: 7.5 mg/kg/injection, schedule: Q01DX011 (ip), vehicle: methylcellulose (MC)) was 97 % of control; the T/C under setting [2] was 71 % of control.
Take `O=C1C(=O)C(Cl)=C(Cl)C(Cl)=C1Cl`: the T/C is 78 % of control (dose: 7.5 mg/kg/injection, schedule: Q01DX011 (ip), vehicle: carboxymethylcellulose (CMC)); 90 % of control under setting [1]; 97 % of control under setting [8].
In the case of `CC1CCCN(/N=N/c2nc3c([nH]2)c(=O)n(C)c(=O)n3C)C1` (configuration not stated), the T/C under setting [7] was 66 % of control and the T/C (dose: 75.0 mg/kg/injection, schedule: Q01DX011 (ip), vehicle: methylcellulose (MC)) is 61 % of control.
Regarding `CCC(C)Cn1cnc2c(=S)nc(N)[nH]c21` (configuration not stated), the T/C under setting [2] is 2 % of control.
`CS(=O)(=O)OCC1OC(O)CC1O` (configuration not stated): the T/C was 113 % of control (dose: 25.0 mg/kg/injection, schedule: Q01DX011 (ip), vehicle: saline) and 153 % of control (dose: 75.0 mg/kg/injection, schedule: Q01DX011 (ip), vehicle: saline).
Take `Cc1c2ccccc2c(C)c2c1ccc1ccccc12`: the T/C is 63 % of control (dose: 9.0 mg/kg/injection, schedule: Q01DX011 (ip), vehicle: carboxymethylcellulose (CMC)); 54 % of control (dose: 19.0 mg/kg/injection, schedule: Q01DX011 (ip), vehicle: carboxymethylcellulose (CMC)); 51 % of control (dose: 38.0 mg/kg/injection, schedule: Q01DX011 (ip), vehicle: carboxymethylcellulose (CMC)).
As for `Nc1nc(Br)c2[nH]cnc2n1`, the T/C under setting [8] was 1 % of control.
